Read-outs that look alike come from different tables or passages of the source.
Legend:
[1] = Plasma and liver concentration of the compound after 4 days of administration in the cholestasis rat induced by ANIT; type: in vivo, SD rats; settings: for concentration at 2 h / concentration at 4 h / Kp at 2 h / Kp at 4 h: SD, oral; for Kp at 2 h / Kp at 4 h: liver/plasma; for concentration at 4 h / Kp at 4 h / Liver concentration of the compound: 4 h
Method: Sample formulation: The compound of the present invention was added to DMSO, and dissolved completely by ultrasound. 0.5% CMC-Na was added to constant volume (DMSO: 0.5% CMC-Na=1:99), and the solution was homogenized by ultrasound for later use. After 3 to 5 days of acclimation, the animals were divided into 20 groups according to body weight: normal group, model group, Example 8 (3 mg/kg/d, 10 mg/kg/d) group, Example 11 (3 mg/kg/d, 10 mg/kg/d) group, Example 12 (3 mg/kg/d, 10 mg/kg/d) group, Example 14 (3 mg/kg/d, 10 mg/kg/d) group, Example 20 (3 mg/kg/d, 10 mg/kg/d) group, Example 22 (3 mg/kg/d, 10 mg/kg/d) group, Example 26 (3 mg/kg/d, 10 mg/kg/d) group, Example 28 (3 mg/kg/d, 10 mg/kg/d) group, and Example 29 (3 mg/kg/d, 10 mg/kg/d) group, with 10 rats for each group. Intragastric administration was conducted with an administration volume of 10 mL/kg, once a day, for a total of 4 days. On Day 2, ANIT (1-naphthyl isothiocyanate, Macklin, purity: 98%, item number: N814658, CAS number: 551-06-4, specification: 5 g/bottle, storage conditions: 2 to 8 degrees, batch number: C10116101) with a dose of 50 mg/kg and an administration volume of 5 mL/kg was administered intragastrically once to each animal (except for animals in the normal group) 4 hours after the administration. The animals were fasted on Day 4 morning. The animals were anesthetized by isoflurane inhalation using a small animal anesthesia machine. Blood was collected from the venous plexus behind the eyeball using a capillary glass tube (about 1 ml per animal), and then left to stand for about one hour. It was centrifuged at 3500 rpm for 10 minutes to obtain the serum. ALT, AST, GGT and TBA indexes as well as the plasma concentration of the compound were determined using an AU480 automatic biochemical analysis system (BECKMAN COULTER). Liver was collected, weighed, and cutted into pieces. Normal saline was added (liver weight: normal saline=1:2), and the mixture was homogenized and freezed. The concentration of the compound in liver was determined using an ultra performance liquid chromatograph (Shimadzu, LC 30AD) and triple quadrupole mass spectrometer (AB, TQ5500). The plasma concentration and liver concentration of the compound of the present invention after 4 days of administration in the cholestasis rat induced by ANIT are shown in Table 3, Table 4 and Table 5 below.

FXR = biological target: T1, FXR (Homo sapiens, UniProt Q96RI1); test: FXR agonistic activity, luciferase assay; type: cell-based; settings: luc2P-GAL4-HEK293 cells transfected with pBIND-FXR, 24 hours
T1 sequence (Q96RI1 262-486 limits assumed): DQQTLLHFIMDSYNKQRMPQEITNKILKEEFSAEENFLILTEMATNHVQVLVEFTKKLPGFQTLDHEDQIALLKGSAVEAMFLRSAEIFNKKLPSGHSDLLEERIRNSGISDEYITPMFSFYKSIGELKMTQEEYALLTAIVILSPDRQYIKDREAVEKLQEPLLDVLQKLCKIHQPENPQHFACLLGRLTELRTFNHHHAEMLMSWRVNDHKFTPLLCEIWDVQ
Method: The FXR agonistic activity of the compound of the present invention was evaluated using the luciferase assay.
The experimental process comprises the follows. The luc2P-GAL4-HEK293 stably transfected cell line (the cell line was established by transfecting pGL4.35 plasmid with HEK293 cells which was then subjected to Hygromycin B screening. The cell contained 9×GAL4 UAS and firefly luciferase reporter gene. The ligand-activated LBD-GAL4 DBD fusion protein can enter the nucleus to bind to 9×GAL4 UAS and activate the transcription of the downstream luciferase reporter gene) was transferred to a 96-well plate with […] per well. pBIND-FXR (Which was constructed by inserting FXR-LBD into pFN26A-BIND hRluc-neo Flexi® vector. The plasmid was 7.5 kb in size, Amp resistant, contained FXR-LBD, and can express FXR-LBD and GAL4 DBD fusion proteins) was transfected using X-tremeGENE HP transfection reagent. The ratio of plasmid to transfection reagent was 1 μg: 2 μl. The specific amount was 100 ng of plasmid and 0.2 μl of X-tremeGENE HP transfection reagent per well. The test compounds (the highest concentration of each compound was 30 μM, 3-fold dilution, a total of 10 concentrations) were added to induce the expression of luciferase. After 24 hours, the 96-well plate containing the test cells was taken out from the incubator, and placed at room temperature. Dual-Glo® Luciferase Reagent with the volume equal to the volume of the medium in the well (80 μl/well) was added to each well and mixed well. The plate was incubated at room temperature for 20 minutes to allow the cells to be fully lysed. All the liquid in the plate was transferred to a 96-well microtiter plate, and the firefly luciferin value was measured with a multi-function plate reader (manufacturer: Bio Tek (USA); model: Synergy4). Dual-Glo® a Stop & Glo® Reagent with the volume equal to the volume of the initial medium (80 μl/well) was added to each well and mixed well. The plate was incubated at room temperature for 10 minutes, and the renilla luciferin value was measured. The measurement order of renilla fluorescence should be the same as that of firefly fluorescence. Curve fitting and EC50 calculation were conducted using GraphPad Prism 5 software by nonlinear regression method. The fitting equation is: Y=Bottom+(Top−Bottom)/(1+10^((Log EC50−X)*HillSlope)), wherein EC50 refers to the semi-effective concentration, Top refers to the maximum effect, Bottom refers to the blank effect, and HillSlope refers to the slope.

[2] = liver, 3 mg/kg/day, 3 mg/kg/d, read-out: Liver concentration of the compound
[3] = liver, 10 mg/kg/day, 10 mg/kg/d, read-out: Liver concentration of the compound
[4] = plasma, 3 mg/kg/day, 3 mg/kg/d, read-out: Plasma concentration of the compound
[5] = plasma, 10 mg/kg/day, 10 mg/kg/d, read-out: Plasma concentration of the compound

Structure (SMILES) | concentration at 2 h [1, 2] | concentration at 4 h [1, 2] | concentration at 2 h [1, 3] | concentration at 4 h [1, 3] | Kp at 2 h ([1]; 3 mg/kg/day, 3 mg/kg/d) | Kp at 4 h ([1]; 3 mg/kg/day, 3 mg/kg/d) | Kp at 2 h ([1]; 10 mg/kg/day, 10 mg/kg/d) | Kp at 4 h ([1]; 10 mg/kg/day, 10 mg/kg/d) | concentration at 2 h [1, 4] | concentration at 4 h [1, 4] | concentration at 2 h [1, 5] | concentration at 4 h [1, 5] | EC50 (FXR) | Liver concentration of the compound ([1]; 10 mg/kg/d)
O=C(O)c1ccc(-c2nnc(N3[C@@H]4CC[C@H]3C[C@@H](OCc3c(-c5ccccc5OC(F)(F)F)noc3C3CC3)C4)o2)cc1 [Example 22, 4-(5-((1R,3r,5S)-3-((5-cyclopropyl-3-(2-(trifluoromethoxy)phenyl)isoxazol-4-yl)methoxy)-8-azabicyclo[3.2.1]octan-8-yl)-1,3,4-oxadiazol-2-yl)benzoic acid] | 3760 ng/g | 3090 ng/g | 12300 ng/g | 9660 ng/g | 16.1 ± 10.9 | 14.4 ± 6.5 | 14.2 ± 2.1 | 19.2 ± 6.9 | 440 ± 481 ng/mL | 278 ± 192 ng/mL | 903 ± 348 ng/mL | 567 ± 242 ng/mL | < 25 nM | –
Cc1cc(C(=O)O)ccc1-c1nnc(N2[C@@H]3CC[C@H]2C[C@@H](OCc2c(-c4c(Cl)cccc4Cl)noc2C2CC2)C3)o1 [Example 14] | 1240 ng/g | 1150 ng/g | 7840 ng/g | – | 7.4 ± 1.5 | 7.1 ± 1.6 | 21 ± 4.4 | 19.8 ± 7 | 168 ± 111 ng/mL | 172 ± 75.3 ng/mL | 402 ± 238 ng/mL | 250 ± 72.4 ng/mL | < 25 nM | 5,093.6 ± 2,197.5 ng/g
O=C(O)c1ccc(-c2nnc(N3[C@@H]4CC[C@H]3C[C@@H](OCc3c(-c5c(Cl)cccc5Cl)noc3C3CC3)C4)o2)cc1 [Example 8, 4-(5-((1R,3r,5S)-3-((5-cyclopropyl-3-(2,6-dichlorophenyl)isoxazol-4-yl)methoxy)-8-azabicyclo[3.2.1]octan-8-yl)-1,3,4-oxadiazol-2-yl)benzoic acid] | 752 ± 419 ng/g | 1190 ± 162 ng/g | 986 ± 355 ng/g | 1190 ± 265 ng/g | 43.9 ± 65.2 | 61 ± 107 | 54.9 ± 37 | 105 ± 48.6 | 44.6 ± 36.9 ng/mL | 130 ± 120 ng/mL | 50.4 ± 74.4 ng/mL | 16.7 ± 16.4 ng/mL | < 25 nM | –
O=C(O)c1ccc(-c2nnc(N3[C@@H]4CC[C@H]3C[C@@H](OCc3c(-c5c(Cl)cccc5Cl)noc3C3CC3)C4)o2)s1 [Example 11] | 1590 ng/g | 1520 ng/g | 5660 ng/g | – | 3.9 ± 1.4 | 6.2 ± 3.9 | 9.5 ± 9.1 | 15.5 ± 12.7 | 401 ± 98.4 ng/mL | 340 ± 253 ng/mL | 1160 ± 1040 ng/mL | 664 ± 739 ng/mL | 100 to 500 nM | 3,614.0 ± 1,961.3 ng/g

Reference: patent US20220127258A1, “AROMATIC RING OR HETEROAROMATIC RING COMPOUNDS, PREPARATION METHOD THEREFOR AND MEDICAL USE THEREOF” (The National Institutes of Pharmaceutical R&D Co., Ltd., priority 2019, published 2022)
